The compounds below were run on HCV genotype 1a replicon cell line (assay: HCV Genotype 1a Replicon Assay). Conditions: Hepatitis C virus, Huh7.5 cell background, NS3-specific protease activity in lysates, 48 or 72 hours, read-out: Genotype 1a (pEC50 class) (converted).
Assay type: cell-based, hepatitis C virus
Description: Assay 2: HCV Genotype 1a Replicon Assay
The HCV genotype 1a replicon cell line was obtained from Apath LLC (APC89; Huh7.5 cell background). This subgenomic replicon contains the N-terminus of the HCV core protein fused to the neomycin-resistance selectable marker. The EMCV IRES lies downstream and drives expression of the non-structural proteins NS3-NS5B. Compound potencies were determined using the NS3-specific protease activity in lysates as a measurement of compound inhibition of replicon levels.
Cells were grown at 37° C. in a 5% CO2 humidified incubator in DMEM (Invitrogen) with 10% FBS (HyClone), 1×NEAA (Invitrogen), 1× Pen-Strep (Invitrogen), and 850 μg/mL G418 (Invitrogen). On day 1 of the assay, cells were plated at 15,000 cells/well in black 96-well tissue culture plates (Costar) in 200 μL media lacking G418. Four hours later, once the cells had adhered, the media was removed and replaced with media (no G418) containing dose-responses of test compounds. Compounds were initially diluted in DMSO and then diluted another 200× in media to bring the final DMSO concentration down to 0.5%. The cells were incubated with test compounds for 48 or 72 hours. At the end of the incubation period, media and compound were removed from the plates.
To determine the NS3-specific protease activity in lysates, the cells were lysed at room temperature in 50 μL/well of 50 mM Hepes pH 7.5, 150 mM NaCl, 15% Glycerol, 0.15% Triton X-100, 10 mM DTT for 20 minutes with shaking. 50 μL of an NS3/4a protease-specific FRET substrate (Anaspec RET SI Cat#22991) was then added to the wells at a final concentration of 15 μM. The plates were incubated at 37° C. for 20 minutes, which corresponds to a timepoint at which the protease activity is still in the linear phase. Protease activity was determined by measuring fluorescence (Excitation: 340 nm; Emission: 509 nm).
To analyze the data, the fluorescence was plotted vs. the compound concentration, and EC50 values were determined from a 4-parameter robust fit model using GraphPad Prism software.

Row | SMILES | EC50
1 | COC(=O)N[C@H](C(=O)N1C[C@@H](C)C[C@H]1c1nc(-c2ccc(-c3cc(Cl)c(NC(=O)N4CCN(C5CCN(C(=O)C(C)(C)C)CC5)CC4)cc3OC(F)(F)F)cc2)c[nH]1)C(C)C [Example 4] | 0.1 to 1 nM
2 | COC(=O)N[C@H](C(=O)N1C[C@@H](OC)C[C@H]1c1nc(-c2ccc(-c3ccc(NC(=O)N4CCN(C5CCN(C(=O)C(C)(C)C)CC5)CC4)cc3OC(F)(F)F)cc2)c[nH]1)C(C)C [Example 5-1] | 0.1 to 1 nM
3 | COC(=O)N[C@H](C(=O)N1C[C@@H](OC)C[C@H]1c1nc(-c2ccc(-c3ccc(NC(=O)N4CCN(C5CCN(C(=O)C6CC6)CC5)CC4)cc3OC(F)(F)F)cc2)c[nH]1)C(C)C [Example 5-3] | 0.1 to 1 nM
4 | COC(=O)N[C@H](C(=O)N1C[C@@H](OC)C[C@H]1c1nc(-c2ccc(-c3ccc(NC(=O)N4CCN(C5CCN(C(=O)C6CCCC6(C)C)CC5)CC4)cc3OC(F)(F)F)cc2)c[nH]1)C(C)C (some centres unmarked) [Example 5-4] | 0.1 to 1 nM
5 | COC(=O)N[C@H](C(=O)N1C[C@@H](OC)C[C@H]1c1nc(-c2ccc(-c3ccc(NC(=O)N4CCN(C5CCN(C(=O)C(C)(C)CO)CC5)CC4)cc3OC(F)(F)F)cc2)c[nH]1)C(C)C [Example 5-5] | 0.1 to 1 nM
6 | COC(=O)N[C@H](C(=O)N1C[C@@H](C)C[C@H]1c1nc(-c2ccc(-c3cc(Cl)c(NC(=O)N4CCN(C5CCN(C(=O)C6CC6(F)F)CC5)CC4)cc3OC(F)(F)F)cc2)c[nH]1)C(C)C (some centres unmarked) [Example 5] | 0.1 to 1 nM
7 | COC(=O)N[C@H](C(=O)N1C[C@@H](C)C[C@H]1c1nc2c(ccc3cc(-c4ccc(NC(=O)N5CCN(C6CCN(C(=O)OC(C)(C)C)CC6)CC5)cc4OC(F)(F)F)ccc32)[nH]1)C(C)C [Example 6-2] | < 0.1 nM

Same assay, conditions: Huh7.5 cell background, NS3-specific protease activity in lysates, 48 or 72 hours

Row | SMILES | Genotype 1a (pEC50 class)
8 | COC(=O)N[C@H](C(=O)N1CCC[C@H]1c1nc(-c2ccc(-c3ccc(NC(=O)N4CCC(N5CCN(C(=O)OC)CC5)CC4)cc3)cc2)c[nH]1)C(C)C [Example 3-6] | A (A represents a pEC50 value between 6 and 8 (EC50 between 1 μM and 10 nM))
9 | COC(=O)N[C@H](C(=O)N1CCC[C@H]1c1nc(-c2ccc(-c3ccc(NC(=O)N4CCC(N5CCN(C(=O)OC(C)(C)C)[C@H](C)C5)CC4)cc3OC(F)(F)F)cc2)c[nH]1)C(C)C [Example 3-7] | B (B represents pEC50 between 8 and 9 (EC50 between 1 and 10 nM))
10 | COC(=O)N[C@H](C(=O)N1CCC[C@H]1c1nc(-c2ccc(-c3ccc(NC(=O)N4CCC(N5CCN(C(=O)[C@H]6CC6(C)C)[C@H](C)C5)CC4)cc3OC(F)(F)F)cc2)c[nH]1)C(C)C [Example 3-8] | B (B represents pEC50 between 8 and 9 (EC50 between 1 and 10 nM))
11 | COC(=O)N[C@H](C(=O)N1C[C@@H](C)C[C@H]1c1nc(-c2ccc(-c3cc(Cl)c(NC(=O)N4CCN(C5CCN(C(=O)[C@H]6CC6(C)C)CC5)CC4)cc3OC(F)(F)F)cc2)c[nH]1)C(C)C [Example 3] | C (C represents pEC50 between and 9 and about 10, (EC50 between 1 nM and 0.1 nM))
12 | COC(=O)N[C@H](C(=O)N1C[C@@H](C)C[C@H]1c1nc(-c2ccc(-c3cc(Cl)c(NC(=O)N4CCC(N5CCN(C(=O)OC(C)(C)C)[C@@H](C)C5)CC4)cc3OC(F)(F)F)cc2)c[nH]1)C(C)C [Example 4-1] | A (A represents a pEC50 value between 6 and 8 (EC50 between 1 μM and 10 nM))
13 | COC(=O)N[C@H](C(=O)N1C[C@@H](C)C[C@H]1c1nc(-c2ccc(-c3cc(Cl)c(NC(=O)N4CCC(N5CCN(C(=O)[C@H]6CC6(C)C)[C@@H](C)C5)CC4)cc3OC(F)(F)F)cc2)c[nH]1)C(C)C [Example 4-2] | C (C represents pEC50 between and 9 and about 10, (EC50 between 1 nM and 0.1 nM))
14 | COC(=O)N[C@H](C(=O)N1C[C@@H](C)C[C@H]1c1nc(-c2ccc(-c3cc(Cl)c(NC(=O)N4CCC(N5CCN(C(=O)C(C)(C)C)[C@@H](C)C5)CC4)cc3OC(F)(F)F)cc2)c[nH]1)C(C)C [Example 4-3] | B (B represents pEC50 between 8 and 9 (EC50 between 1 and 10 nM))
15 | CNC(=O)N1CCN(C2CCN(C(=O)Nc3cc(OC(F)(F)F)c(-c4ccc(-c5c[nH]c([C@@H]6C[C@H](C)CN6C(=O)[C@@H](NC(=O)OC)C(C)C)n5)cc4)cc3Cl)CC2)C[C@@H]1C [Example 4-4] | B (B represents pEC50 between 8 and 9 (EC50 between 1 and 10 nM))
16 | COC(=O)N[C@H](C(=O)N1C[C@@H](C)C[C@H]1c1nc(-c2ccc(-c3cc(Cl)c(NC(=O)N4CCC(N5CCN(C(=O)C6CC6)[C@@H](C)C5)CC4)cc3OC(F)(F)F)cc2)c[nH]1)C(C)C [Example 4-5] | B (B represents pEC50 between 8 and 9 (EC50 between 1 and 10 nM))
17 | COC(=O)N[C@H](C(=O)N1C[C@@H](C)C[C@H]1c1nc(-c2ccc(-c3cc(F)c(NC(=O)N4CCC(N5CCN(C(=O)OC(C)(C)C)CC5)CC4)cc3OC(F)(F)F)cc2)c[nH]1)C(C)C [Example 4-6] | B (B represents pEC50 between 8 and 9 (EC50 between 1 and 10 nM))
18 | COC(=O)N[C@H](C(=O)N1C[C@@H](C)C[C@H]1c1nc(-c2ccc(-c3cc(F)c(NC(=O)N4CCC(N5CCN(C(=O)C(C)(C)C)CC5)CC4)cc3OC(F)(F)F)cc2)c[nH]1)C(C)C [Example 4-7] | C (C represents pEC50 between and 9 and about 10, (EC50 between 1 nM and 0.1 nM))
19 | COC(=O)N[C@H](C(=O)N1C[C@@H](C)C[C@H]1c1nc(-c2ccc(-c3cc(F)c(NC(=O)N4CCC(N5CCN(C(=O)[C@H]6CC6(C)C)CC5)CC4)cc3OC(F)(F)F)cc2)c[nH]1)C(C)C [Example 4-8] | C (C represents pEC50 between and 9 and about 10, (EC50 between 1 nM and 0.1 nM))
20 | COC(=O)N[C@H](C(=O)N1C[C@@H](C)C[C@H]1c1nc(-c2ccc(-c3cc(F)c(NC(=O)N4CCC(N5CCN(C(=O)C6CC6)CC5)CC4)cc3OC(F)(F)F)cc2)c[nH]1)C(C)C [Example 4-9] | C (C represents pEC50 between and 9 and about 10, (EC50 between 1 nM and 0.1 nM))
21 | COC(=O)N[C@H](C(=O)N1C[C@@H](C)C[C@H]1c1nc(-c2ccc(-c3ccc(NC(=O)N4CCC(N5CCN(C(=O)C(C)(C)C)CC5)CC4)cc3OC(F)(F)F)cc2)c[nH]1)C(C)C [Example 4-10] | C (C represents pEC50 between and 9 and about 10, (EC50 between 1 nM and 0.1 nM))
22 | COC(=O)N[C@H](C(=O)N1C[C@@H](C)C[C@H]1c1nc(-c2ccc(-c3ccc(NC(=O)N4CCC(N5CCN(C(=O)[C@H]6CC6(C)C)CC5)CC4)cc3OC(F)(F)F)cc2)c[nH]1)C(C)C [Example 4-11] | C (C represents pEC50 between and 9 and about 10, (EC50 between 1 nM and 0.1 nM))
23 | COC(=O)N[C@H](C(=O)N1C[C@@H](C)C[C@H]1c1nc(-c2ccc(-c3cc(Cl)c(NC(=O)N4CCC(N5CCN(C(=O)OC(C)(C)C)CC5)CC4)cc3OC(F)(F)F)cc2)c[nH]1)C(C)C [Example 4-12] | B (B represents pEC50 between 8 and 9 (EC50 between 1 and 10 nM))
24 | COC(=O)N[C@H](C(=O)N1C[C@@H](C)C[C@H]1c1nc(-c2ccc(-c3cc(Cl)c(NC(=O)N4CCC(N5CCN(C(=O)C(C)(C)C)CC5)CC4)cc3OC(F)(F)F)cc2)c[nH]1)C(C)C [Example 4-13] | B (B represents pEC50 between 8 and 9 (EC50 between 1 and 10 nM))
25 | COC(=O)N[C@H](C(=O)N1C[C@@H](C)C[C@H]1c1nc(-c2ccc(-c3cc(Cl)c(NC(=O)N4CCC(N5CCN(C(=O)[C@H]6CC6(C)C)CC5)CC4)cc3OC(F)(F)F)cc2)c[nH]1)C(C)C [Example 4-14] | C (C represents pEC50 between and 9 and about 10, (EC50 between 1 nM and 0.1 nM))
26 | COC(=O)N[C@H](C(=O)N1C[C@@H](C)C[C@H]1c1nc(-c2ccc(-c3cc(Cl)c(NC(=O)N4CCC(N5CCN(C(=O)C6CC6)CC5)CC4)cc3OC(F)(F)F)cc2)c[nH]1)C(C)C [Example 4-15] | B (B represents pEC50 between 8 and 9 (EC50 between 1 and 10 nM))
27 | COC(=O)N[C@H](C(=O)N1C[C@@H](C)C[C@H]1c1nc(-c2ccc(-c3cc(Cl)c(NC(=O)N4CCC(N5CCN(C(=O)C(C)(C)C)C[C@H]5C)CC4)cc3OC(F)(F)F)cc2)c[nH]1)C(C)C [Example 4-16] | C (C represents pEC50 between and 9 and about 10, (EC50 between 1 nM and 0.1 nM))
28 | COC(=O)N[C@H](C(=O)N1C[C@@H](C)C[C@H]1c1nc(-c2ccc(-c3cc(Cl)c(NC(=O)N4CCC(N5CCN(C(=O)[C@H]6CC6(C)C)C[C@H]5C)CC4)cc3OC(F)(F)F)cc2)c[nH]1)C(C)C [Example 4-17] | C (C represents pEC50 between and 9 and about 10, (EC50 between 1 nM and 0.1 nM))
29 | COC(=O)N[C@H](C(=O)N1C[C@@H](OC)C[C@H]1c1nc(-c2ccc(-c3ccc(NC(=O)N4CCN(C5CCN(C(=O)[C@H]6CC6(C)C)CC5)CC4)cc3OC(F)(F)F)cc2)c[nH]1)C(C)C [Example 5-2] | C (C represents pEC50 between and 9 and about 10, (EC50 between 1 nM and 0.1 nM))
